In patent US8138333B2, “Sulfonyl-indole derivatives” (Proximagen Limited, priority 2007, dated 2012):
Where a name gives a salt, the structure may show the parent alone. Read-outs that look alike come from different tables or passages of the source. Blank lines part the entries; values can stand above or below the compound they belong to.

How the values were obtained:
[1] = target: T1, human 5-HT6 receptor (Homo sapiens, UniProt P50406); experiment: 5-HT6 intrinsic activity assay (inhibition of 5-HT induced increase in cAMP); format: cell-based; conditions: read-out: Antagonist potency at the h5-HT6 receptor, IC50,corr
T1 construct: expressed in transfected cells; host or cells: HEK293 (G-418 selected), membrane preparation
Description: (b) 5-HT6 Intrinsic Activity Assay
Briefly, HEK293/5-HT6 cells were seeded in polylysine coated 96-well plates at a density of 25,000/well and grown in DMEM (Dulbecco's Modified Eagle Medium) (without phenol-red) containing 5% dialyzed Foetal Bovine Serum for 48 h at 37° C. in a 5% CO2 incubator. The medium was then aspirated and replaced by 0.1 ml assay medium (Hanks Balance Salt Solution containing 20 mM HEPES, 1.5 mM isobutylmethylxanthine and 1 mg/ml bovine serum albumin). After addition of test substances, 50 μl dissolved in assay medium, the cells were incubated for 10 min at +37° C. in a 5% CO2 incubator. The medium was again aspirated and the cAMP content was determined using a radioactive cAMP kit (Amersham Pharmacia Biotech, BIOTRAK RPA559).

[2] = target: T1, human 5-HT6 receptor; experiment: 5-HT6 receptor binding assay ([3H]-LSD, SPA, membranes of transfected HEK293 cells)

T1 sequence (P50406 whole entry): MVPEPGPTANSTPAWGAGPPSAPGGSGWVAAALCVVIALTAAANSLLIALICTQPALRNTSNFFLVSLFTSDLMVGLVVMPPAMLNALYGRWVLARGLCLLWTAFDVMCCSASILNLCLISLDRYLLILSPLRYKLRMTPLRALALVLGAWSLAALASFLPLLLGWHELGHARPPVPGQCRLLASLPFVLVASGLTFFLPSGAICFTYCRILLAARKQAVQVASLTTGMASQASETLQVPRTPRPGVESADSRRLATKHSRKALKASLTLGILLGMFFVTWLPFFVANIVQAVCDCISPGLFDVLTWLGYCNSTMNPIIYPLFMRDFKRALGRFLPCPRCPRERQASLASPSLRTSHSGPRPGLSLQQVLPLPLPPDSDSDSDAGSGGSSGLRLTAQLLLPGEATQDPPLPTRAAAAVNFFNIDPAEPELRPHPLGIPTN

Structure (SMILES): O=S(=O)(c1ccccc1)n1cc2c3c(cccc31)CN(Cc1ncc[nH]1)C2 [Example 3, 4-(1H-Imidazol-2-ylmethyl)-1-(phenylsulfonyl)-1,3,4,5-tetrahydropyrrolo[4,3,2-de]isoquinoline bis(trifluoroacetate)]
IC50 [1]: 28 nM

Structure (SMILES): CN1CCc2cccc3c2c(cn3S(=O)(=O)c2ccccc2)C1 [Example 13, 4-Methyl-1-(phenylsulfonyl)-3,4,5,6-tetrahydro-1H-azepino[3,4,5-cd]indole hydrochloride]
Ki [2]: 6 nM

Structure (SMILES): CCN1Cc2cccc3c2c(cn3S(=O)(=O)c2ccccc2)C1 [Example 5, 4-Ethyl-1-(phenylsulfonyl)-1,3,4,5-tetrahydropyrrolo[4,3,2-de] isoquinoline trifluoroacetate]
Ki ([2]; read-out: Binding affinity (Ki) at the h5-HT6 receptor): 21 nM

More lines, now with the values ahead:

IC50 [1]: 8 nM
Structure (SMILES): O=S(=O)(c1ccccc1)n1cc2c3c(cccc31)CNCC2 [Example 15, 1-(Phenylsulfonyl)-3,4,5,6-tetrahydro-1H-azepino[5,4,3-cd]indole]

Hill coefficient ([2]; inter assay, over three experiments): 0.94 (SD 0.09)
Structure (SMILES): NCCc1c[nH]c2ccc(O)cc12 [Example 5-HT, 5-hydroxytryptamine, reference compound]
